Results as given in PubChem BioAssay AID330 (DTP/NCI, 2004).
Values joined by “and” are separate entries in the source; they are usually repeats but may differ in a detail not shown here. Equal entries are not always repeated. Toxic doses and inconclusive results are not listed.

Test system: P388 leukemia ip, CD2F1 mice, survival T/C
Experiment: NCI In Vivo Anticancer Drug Screen. Data for tumor model P388 Leukemia (intraperitoneal) in CD2F1 (CDF1) mice
Settings: endpoint: median survival time, higher = longer survival
Summary of the method: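 Mice carrying the transplanted tumor received test compound or vehicle. Survival was recorded in each group, and the value is the treated-group measurement divided by that of the vehicle-treated control group.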

[1] = dose: 60.0 mg/kg/injection, schedule: Q01DX005 (ip), vehicle: Klucel (hydroxypropylcellulose) (HPC)
[2] = dose: 120.0 mg/kg/injection, schedule: Q01DX005 (ip), vehicle: Klucel (hydroxypropylcellulose) (HPC)
[3] = dose: 50.0 mg/kg/injection, schedule: Q01DX005 (ip), vehicle: saline with Tween-80
[4] = dose: 100.0 mg/kg/injection, schedule: Q01DX005 (ip), vehicle: saline with Tween-80
[5] = dose: 200.0 mg/kg/injection, schedule: Q01DX005 (ip), vehicle: saline with Tween-80
[6] = dose: 50.0 mg/kg/injection, schedule: Q01DX005 (ip), vehicle: Klucel (hydroxypropylcellulose) (HPC)
[7] = dose: 100.0 mg/kg/injection, schedule: Q01DX005 (ip), vehicle: Klucel (hydroxypropylcellulose) (HPC)

CNC(=O)Nc1ccccc1C(=O)NN
T/C (dose: 25.0 mg/kg/injection, schedule: Q01DX009 (ip), vehicle: Klucel (hydroxypropylcellulose) (HPC)): 100 % of control
T/C (dose: 50.0 mg/kg/injection, schedule: Q01DX009 (ip), vehicle: Klucel (hydroxypropylcellulose) (HPC)): 109 % of control
T/C (dose: 100.0 mg/kg/injection, schedule: Q01DX009 (ip), vehicle: Klucel (hydroxypropylcellulose) (HPC)): 105 % of control
T/C (dose: 200.0 mg/kg/injection, schedule: Q01DX009 (ip), vehicle: Klucel (hydroxypropylcellulose) (HPC)): 96 % of control

O=c1oc(-c2ccc(Cl)cc2Cl)nc2cc(Cl)ccc12
T/C (dose: 60.0 mg/kg/injection, schedule: Q01DX005 (ip), vehicle: saline with Tween-80): 104 % of control
T/C (dose: 120.0 mg/kg/injection, schedule: Q01DX005 (ip), vehicle: saline with Tween-80): 112 % of control

Cc1[nH]c2ccccc2c1-c1cc(-c2cc(-c3c(C)[nH]c4ccccc34)nc(N)n2)nc(N)n1
T/C [1]: 97 % of control
T/C [2]: 90 % of control

CCC(C)C(NC(=O)c1ccccc1)C(=O)O (centres undefined)
T/C [3]: 90 % of control
T/C [4]: 106 % of control
T/C [5]: 97 % of control

C[n+]1cc2c3ccccc3ccc2c2ccccc21
T/C (dose: 12.5 mg/kg/injection, schedule: Q04DX003 (ip), vehicle: distilled water + Tween-80): 113 % of control
T/C (dose: 25.0 mg/kg/injection, schedule: Q04DX003 (ip), vehicle: distilled water + Tween-80): 105 % of control

CC(=O)Oc1cccnc1[N+](=O)[O-]
T/C (dose: 12.5 mg/kg/injection, schedule: Q01DX009 (ip), vehicle: saline): 103 % of control and 106 % of control
T/C (dose: 25.0 mg/kg/injection, schedule: Q01DX009 (ip), vehicle: saline): 100 % of control and 101 % of control
T/C (dose: 50.0 mg/kg/injection, schedule: Q01DX009 (ip), vehicle: saline): 102 % of control and 120 % of control and 94 % of control
T/C (dose: 100.0 mg/kg/injection, schedule: Q01DX009 (ip), vehicle: saline): 106 % of control and 108 % of control and 123 % of control
T/C (dose: 200.0 mg/kg/injection, schedule: Q01DX009 (ip), vehicle: saline): 105 % of control and 119 % of control
T/C (dose: 400.0 mg/kg/injection, schedule: Q01DX009 (ip), vehicle: saline): 105 % of control

C=C(C)[C@H]1CN[C@H](C(=O)O)[C@H]1CC(=O)O
T/C (dose: 0.62 mg/kg/injection, schedule: Q01DX005 (ip), vehicle: saline): 98 % of control
T/C (dose: 1.25 mg/kg/injection, schedule: Q01DX005 (ip), vehicle: saline): 92 % of control
T/C (dose: 2.5 mg/kg/injection, schedule: Q01DX005 (ip), vehicle: saline): 99 % of control and 92 % of control
T/C (dose: 5.0 mg/kg/injection, schedule: Q01DX005 (ip), vehicle: saline): 93 % of control and 96 % of control
T/C (dose: 10.0 mg/kg/injection, schedule: Q01DX005 (ip), vehicle: saline): 99 % of control and 101 % of control
T/C (dose: 20.0 mg/kg/injection, schedule: Q01DX005 (ip), vehicle: saline): 100 % of control and 116 % of control
T/C (dose: 40.0 mg/kg/injection, schedule: Q01DX005 (ip), vehicle: saline): 105 % of control

CC1=C(C)CC2C(=O)c3c(c(O)c4ccccc4c3Cl)C(=O)C2C1 (centres undefined)
T/C (dose: 50.0 mg/kg/injection, schedule: Q01DX001 (ip), vehicle: Klucel (hydroxypropylcellulose) (HPC)): 90 % of control
T/C (dose: 100.0 mg/kg/injection, schedule: Q01DX001 (ip), vehicle: Klucel (hydroxypropylcellulose) (HPC)): 89 % of control
T/C (dose: 200.0 mg/kg/injection, schedule: Q01DX001 (ip), vehicle: Klucel (hydroxypropylcellulose) (HPC)): 86 % of control and 90 % of control
T/C (dose: 400.0 mg/kg/injection, schedule: Q01DX001 (ip), vehicle: Klucel (hydroxypropylcellulose) (HPC)): 92 % of control

CNC(=O)OCc1c(COC(=O)NC)c2n(c1-c1ccc(Cl)c(Cl)c1)CCS2(=O)=O
T/C (dose: 25.0 mg/kg/injection, schedule: Q01DX005 (ip), vehicle: saline with Tween-80): 108 % of control
T/C [3]: 92 % of control
T/C [4]: 88 % of control
T/C [5]: 92 % of control

CC1CCC2(C)C(CC(O)[C@H](O)C2(C)O)C1(C)CCc1ccoc1 (some centres undefined)
T/C (dose: 3.5 mg/kg/injection, schedule: Q01DX005 (ip), vehicle: Klucel (hydroxypropylcellulose) (HPC)): 108 % of control
T/C (dose: 7.0 mg/kg/injection, schedule: Q01DX005 (ip), vehicle: Klucel (hydroxypropylcellulose) (HPC)): 103 % of control
T/C (dose: 14.0 mg/kg/injection, schedule: Q01DX005 (ip), vehicle: Klucel (hydroxypropylcellulose) (HPC)): 106 % of control
T/C (dose: 25.0 mg/kg/injection, schedule: Q01DX005 (ip), vehicle: Klucel (hydroxypropylcellulose) (HPC)): 101 % of control
T/C (dose: 28.0 mg/kg/injection, schedule: Q01DX005 (ip), vehicle: Klucel (hydroxypropylcellulose) (HPC)): 104 % of control
T/C [6]: 92 % of control
T/C [7]: 97 % of control

CC(C)(C)C1=CS(=O)(=O)C1
T/C (dose: 1.56 mg/kg/injection, schedule: Q01DX001 (ip), vehicle: saline with Tween-80): 103 % of control
T/C (dose: 3.12 mg/kg/injection, schedule: Q01DX001 (ip), vehicle: saline with Tween-80): 102 % of control

Cc1cc(C)nc(NCCCNc2nc(C)cc(C)n2)n1
T/C [6]: 101 % of control
T/C [7]: 98 % of control
T/C (dose: 200.0 mg/kg/injection, schedule: Q01DX005 (ip), vehicle: Klucel (hydroxypropylcellulose) (HPC)): 100 % of control

COc1cccc2c1C(=O)c1c(O)c3c(c(O)c1C2=O)C[C@@](O)(C(=O)CO)C[C@@H]3OC1CC(NC(C)=O)C(O)C(C)O1 (some centres undefined)
T/C (dose: 0.2 mg/kg/injection, schedule: Q01DX009 (ip), vehicle: water): 96 % of control
T/C (dose: 0.39 mg/kg/injection, schedule: Q01DX009 (ip), vehicle: water): 107 % of control
T/C (dose: 0.78 mg/kg/injection, schedule: Q01DX009 (ip), vehicle: water): 116 % of control
T/C (dose: 1.56 mg/kg/injection, schedule: Q01DX009 (ip), vehicle: water): 122 % of control
T/C (dose: 3.13 mg/kg/injection, schedule: Q01DX009 (ip), vehicle: water): 120 % of control
T/C (dose: 25.0 mg/kg/injection, schedule: Q01DX009 (ip), vehicle: other): 156 % of control
T/C (dose: 50.0 mg/kg/injection, schedule: Q01DX009 (ip), vehicle: other): 195 % of control
T/C (dose: 50.0 mg/kg/injection, schedule: Q01DX009 (ip), vehicle: water): 172 % of control
T/C (dose: 100.0 mg/kg/injection, schedule: Q01DX009 (ip), vehicle: other): 201 % of control
T/C (dose: 200.0 mg/kg/injection, schedule: Q01DX009 (ip), vehicle: other): 192 % of control

CC(C)COCC1COC2(OCC(C)(C)C2OC(=O)Nc2ccccc2)O1 (centres undefined)
T/C [1]: 95 % of control
T/C [2]: 94 % of control
T/C (dose: 240.0 mg/kg/injection, schedule: Q01DX005 (ip), vehicle: Klucel (hydroxypropylcellulose) (HPC)): 91 % of control

O=C1CSC(=S)N1c1ccc(F)cc1F
T/C (dose: 50.0 mg/kg/injection, schedule: Q01DX009 (ip), vehicle: suspension in saline): 97 % of control
T/C (dose: 100.0 mg/kg/injection, schedule: Q01DX009 (ip), vehicle: suspension in saline): 100 % of control
T/C (dose: 200.0 mg/kg/injection, schedule: Q01DX009 (ip), vehicle: suspension in saline): 100 % of control

O=C(CCN1CCOCC1)Nc1ccc(F)cc1F
T/C [3]: 99 % of control
T/C [4]: 94 % of control
T/C [5]: 94 % of control

CS(=O)(=O)OCC(=O)NCCNC(=O)COS(C)(=O)=O
T/C (dose: 12.5 mg/kg/injection, schedule: Q04DX003 (ip), vehicle: saline with Tween-80): 100 % of control
T/C (dose: 25.0 mg/kg/injection, schedule: Q04DX003 (ip), vehicle: saline with Tween-80): 108 % of control
T/C (dose: 50.0 mg/kg/injection, schedule: Q04DX003 (ip), vehicle: saline with Tween-80): 120 % of control

Cc1nn(C(=S)S)c(C)c1N=Nc1ccccc1[N+](=O)[O-]
T/C (dose: 100.0 mg/kg/injection, schedule: Q04DX002 (ip), vehicle: Klucel (hydroxypropylcellulose) (HPC)): 103 % of control
T/C (dose: 200.0 mg/kg/injection, schedule: Q04DX002 (ip), vehicle: Klucel (hydroxypropylcellulose) (HPC)): 94 % of control
T/C (dose: 400.0 mg/kg/injection, schedule: Q04DX002 (ip), vehicle: Klucel (hydroxypropylcellulose) (HPC)): 107 % of control

COc1cc(C)c(O)c(C/C=C(\C)CC2=C[C@@]3(C)CCC[C@@]3(C)[C@]3(C=CC(C)(C)O3)O2)c1
T/C (dose: 10.0 mg/kg/injection, schedule: Q01DX005 (ip), vehicle: saline with Tween-80): 94 % of control
T/C (dose: 20.0 mg/kg/injection, schedule: Q01DX005 (ip), vehicle: saline with Tween-80): 99 % of control
T/C (dose: 40.0 mg/kg/injection, schedule: Q01DX005 (ip), vehicle: saline with Tween-80): 99 % of control
